# Laboratory results reported in patent publication US20250122193A1, “NOVEL PYRIDOCARBAZOLIUM COMPOUNDS AND MEDICAL USES THEREOF” (MyCural Therapeutics, priority 2021, published 2025).
# Key:
# [1] = target: T1, homodimerization of the bZip protein GCN4 (Saccharomyces cerevisiae, UniProt P03069); assay: split Gaussia luciferase (GLuc) assay, GCN4:GCN4; assay type: cell-based; conditions: 6.5 μM
# T1 construct: replacing the existing Zip-gene (GCN4); expressed in transfected cells; host or cells: HeLa
# Description: (§1) FIG. 1: MYCMI-7 (Compound Example 1) inhibits the MYC:MAX interaction in cells, bind MYC in vitro, and blocks MYC function. A) Molecular structure of MYCMI-7. B-E) split Gaussia luciferase (GLuc) assay. MYC or MYCN and MAX Gluc constructs were co-transfected into HeLa cells together with a firefly luciferase vector. 24 hours post transfection cells were treated with compounds, and after another 17-24 hours cells were harvested and both GLuc and firefly luciferase activities were measured. The mean of three different experiments is shown. […] G) Quantification of isPLA dots. […] J) MYC target gene ODC1 expression after treatment with 5 μM MYCMI-7, quantified by qPCR. […] L) Recombinant MYC bHLHZip protein domain immobilized onto a CM5 chip was subjected to various concentrations of MYCMI-7 and the complex of MYCbHLHZip-MYCMI-7 was measured as response units by SPR. […]
# 0.2-0.4 μg of each GLuc-construct together with 0.05 μg pCMV-LUC (firefly luciferase) were used per transfection in 12 well plates. […] After 60 min incubation at room temperature 20 μM D-luciferin was added (substrate of Firefly luciferase) and luminescence was measured in a Lumat LB9501 (Berthold) or OmegaFluostar (BMG Labtech) luminometer. Directly after, Gaussia luciferase substrate Coelenterazine (Promega) was added to a final concentration of 20 μM in a mixture with “Stop n' Glow” (Promega) and the luciferase activity was measured. […]
# [2] = target: T2, endogenous MYC:MAX interaction (Homo sapiens, UniProt P01106); assay: in situ proximity ligation assay (isPLA), MYC:MAX; assay type: cell-based; conditions: 5 μM, 24 hours, MCF-7 cells
# T2 construct: endogenous in cells; host or cells: MCF7
# Description: as §1
# Briefly, cells were grown on collagen-coated chamber slides (Falcon), treated with compounds and then washed twice with PBS and fixed in ice cold methanol for 5-15 min at room temperature. […] Images were taken using an Axiovert 200M inverted microscope (Zeiss) and fluorescent dots were quantified using semi-automated analysis in ImageJ (http://imagej.net) and averaged to number of dots per cell. […]
# [3] = tested on: association of MYC with the ODC1 gene promoter; assay: chromatin immunoprecipitation (ChIP) of MYC at ODC1 promoter; assay type: cell-based; conditions: 5 μM
# Description: FIG. 1: MYCMI-7 (Compound Example 1) inhibits the MYC:MAX interaction in cells, bind MYC in vitro, and blocks MYC function. A) Molecular structure of MYCMI-7. B-E) split Gaussia luciferase (GLuc) assay. MYC or MYCN and MAX Gluc constructs were co-transfected into HeLa cells together with a firefly luciferase vector. 24 hours post transfection cells were treated with compounds, and after another 17-24 hours cells were harvested and both GLuc and firefly luciferase activities were measured. The mean of three different experiments is shown. Treatment with: B) 5 μM of MYCMI-7, 64 μM 10058-F4 or 5 μM JQ1, respectively, C) 6.5 μM MYCMI-7 on cells expressing MYC:MAX GLuc vs. GCN4:GCN4 GLuc, D) 5 μM MYCMI-7 and 5 μM ellipticine. E) 5 μM MYCMI-7 for various time points. F) in situ proximity ligation assay (isPLA). […] MYC:GAL4 was used as negative control in the isPLA assay. G) Quantification of isPLA dots. (H) Co-immunoprecipitation (co-IP) of endogenous MYC and MAX proteins from MCF7 cells after treatment with 5 μM MYCMI-7 at various times. IP=immunoprecipitation; W=western blot. I) Chromatin immunoprecipitation (ChIP) of MYC at the ODC1 target gene promoter after treatment of cells with 5 μM MYCMI-7 for 6 hours. J) MYC target gene ODC1 expression after treatment with 5 μM MYCMI-7, quantified by qPCR. K) ChIP of MYC at the ODC promoter in MCF7 cells after 5 μM MYCMI-7 treatment for indicated time points. L) Recombinant MYC bHLHZip protein domain immobilized onto a CM5 chip was subjected to various concentrations of MYCMI-7 and the complex of MYCbHLHZip-MYCMI-7 was measured as response units by SPR. The sensogram was produced by subtracting the blank response.
# For western blot equal amounts of proteins ([…]) were separated on a 4-12% SDS-PAGE gel. Proteins were transferred to Immobilion-P membrane (Millipore) and detected by immunostaining and chemoluminescence (Immobilion western HRP substrate; Millipore). For immunoprecipitations 500-1000 μg of protein was used. […] Briefly, cells were crosslinked with 1% formaldehyde on ice for 6 minutes. […]
# [4] = tested on: Rat1 fibroblasts TGR1 (wt MYC) and HOMyc3 (reconstituted MYC); assay: WST-1 growth/viability assay, MYC-expressing Rat1 fibroblasts; assay type: cell-based, rat; conditions: Rattus norvegicus, TGR1, 48 h, read-out: GI50 (average growth inhibition of 50%)
# Description: (§2) A) Immortalized Rat1 fibroblasts with different MYC status; TGR1 (wt MYC), HO15.19 (MYC−/−) and HOMyc3 (HO15.19 with reconstituted MYC) were treated with indicated concentrations of MYCMI-7 for 48 hours. Cell proliferation/viability/metabolic activity was measured using the WST-1 assay. […] “Responsive” and “less responsive”; cell lines with positive and negative log 10 GI50 values, respectively. […] For the WST-1 assays the average of three different experiments performed in triplicates is shown.
# (§3) Cell growth and viability assays: Cell growth and viability was estimated in triplicates with WST-1 (Roche) or Resazurin sodium salt (Sigma-Aldrich) assays in medium at 37° C. and 5% CO2 for 2 hours after which absorbance or fluorescence, respectively, was measured with an Omega Fluostar (BMG Labtech) in a 96 well plate format.
# [5] = tested on: MYC target genes CR2, RGS16, CAMKV and nucleolin; assay: MYC transactivation of target genes in U2OS-MYCER cells, RT-qPCR; assay type: cell-based; conditions: 5 μM, 24 hours
# Description: F) Inhibition of MYC transactivation of target genes CR2, RSG16, CAKMV and nucleolin as determined by RT-qPCR analysis, based on three biological experiments with three technical repeats each. U2OS-MYCER cells were treated with (MYC ON) or without (MYC OFF) 100 nM 4-hydroxy-tamoxifen (4-OHT) for 4 hours, after which DMSO or MYCMI-7 (5 μM) were added for 24 hours before total RNA was extraction. Fold changes in mRNA expression are presented relative to DMSO in MYC OFF cells after normalization to GAPDH, used as reference gene.
# [6] = tested on: MDA-MB-231 xenograft tumors; assay: MDA-MB-231 xenograft
# Description: A) Tumor growth of MDA-MB-231 xenografts in mice injected with 6.25 mg/kg MYCMI-7 or vehicle intratumorally twice a week until sacrificed. Tumor growth was monitored by measuring tumor size (mm^3) every 4th day. B) Survival curve of the mice in A) sacrificed when the tumors reached a volume of 1000 mm^3. C) Immunohistochemistry staining for MYC and apoptosis marker caspase 3 in MDA-MB-231 tumor tissue from vehicle- and MYCMI-7 treated animals at end point, D) Immunofluorescence staining of proliferation and apoptosis markers Ki67 and TUNEL, respectively, in MDA-MB-231 xenograft tumor tissue from vehicle- and MYCMI-7 treated animals at end point. E) MYCN-amplified SK-N-DZ neuroblastoma xenograft mice injected with 6.25 mg/kg MYCMI-7 or vehicle intratumorally twice a week until sacrificed. Tumor growth was monitored by measuring tumor volume (ml) daily. F) Survival curve of mice in E) sacrificed at a tumor volume of 1500 mm^3. G-H) H&E (G) and MYCN IHC (H) stainings of SK-N-DZ xenograft tumor tissue from vehicle- and MYCMI-7 treated animals at end point. A-H) At the end points, the last injection was done 3 hrs before sacrifice. Images were taken at 10× or 40× magnification.
# For the xenograft transplantation mouse tumor models of breast cancer and neuroblastoma, 6-8 weeks old NOD/SCID mice (Taconic) or NMRI nu/nu (Scanbur) were injected s.c. with 5×10^6 MDA-MB-231 breast cancer cells or MYCN-amplified SK-N-DZ neuroblastoma cells. When tumors reached a size of 100-200 mm^3, mice started receiving treatment (6.25 mg/kg MYCMI-7) administered intratumorally (50 ml) twice per week. The last dose was administered 3 hrs before termination. Mice were sacrificed when the tumors had reached as size of 1000 mm^3 (MDA-MB-231) or 1500 mm^3 (SK-N-DZ). Tumors were collected and frozen in OCT (Cryomount, Histolab) or fixed in buffered 4% formaldehyde solution (Histolab) and paraffin-embedded.
# Immunohistochemistry andimmunofluorescence: Apoptosis was visualized at the single-cell level on tumor cryosections using the TUNEL method using the In Situ Cell Death Detection Fluorescein-Roche kit and analyzed by fluorescence microscopy. Briefly, tumor cryosections were fixed in 4% paraformaldyde (PFA) and the assay was performed following the instructions from the manufacturer. Negative controls were run using the reagent without the TdT enzyme. Samples were mounted using Vectashield mounting medium (Vector) and DAPI was used as nuclear counterstaining. […] Visualization and image acquisition was done in a Zeiss microscope, and for panoramic views by a Vectra imaging system. For quantification, areas with positive TUNEL and Ki67 staining were measured using Image J software.
# [7] = tested on: primary patient derived glioblastoma cells; assay: primary glioblastoma cultures, resazurin assay; conditions: 42 patients, 2D cultures, 72 hours
# Description: A) Primary glioblastoma samples from 42 patient biopsies were cultured for 72 hours in presence of MYCMI-7 at indicated doses and cell growth was measured by the resazurin assay.
# Viability measurements in glioblastoma initiating cell cultures: The adherent human glioblastoma initiating cell cultures (2) were seeded on laminin-coated 384-well microplates (BD Falcon Optilux #353962). […] Cell cultures (45 for screen 2 and 24/29 for screen 3) were plated one day prior to treatment using a Multidrop plate dispenser (ThermoScientific). Drugs were transferred using an ECHO550 non-contact liquid dispenser (Labcyte, USA) to a 384 standard dispensing plate. The substances were subsequently diluted in medium and lifted with a 384 head and a Janus MTD liquid dispenser (PerkinElmer, USA) to the cell plates. The screening experiment was assayed for viability using resazurin (R7017, Sigma Aldrich) after 72 hours of treatment as previously described (3), and detected by a fluorescent plate reader (EnVision multilabel reader, PerkinElmer) at excitation and emission wavelengths of 535/595 nm. As a negative control, DMSO vehicle was added at 4 different concentrations (16 wells/plate) and doxorubicin was used as a positive control (one 11-dose response curve on each plate). Each treatment dose was mapped to their individual exact DMSO concentration for normalization. […]
# [8] = tested on: HO15.19 (MYC-/-) Rat1 fibroblasts; assay: WST-1 growth/viability assay, MYC null Rat1 fibroblasts
# Description: as §2, §3
# [9] = tested on: Human neuroblastoma cells; assay: growth/viability of neuroblastoma cells with or without MYCN-amplification; conditions: 6.25 μM, 24 hrs
# Description: Cell proliferation/viability/metabolic activity was measured using the WST-1 assay. B) Human neuroblastoma cells with or without MYCN-amplification where treated with 6.25 μM MYCMI-7 or 64 μM 10058-F4 for 24 hrs. […] For the WST-1 assays the average of three different experiments performed in triplicates is shown.
# Cell growth and viability assays: Cell growth and viability was estimated in triplicates with WST-1 (Roche) or Resazurin sodium salt (Sigma-Aldrich) assays in medium at 37° C. and 5% CO2 for 2 hours after which absorbance or fluorescence, respectively, was measured with an Omega Fluostar (BMG Labtech) in a 96 well plate format. Cell viability by the Cyt60 assay was carried out as in manufacturers' protocol.
# [10] = 6.25 mg/kg intratumoral twice weekly
# Description for Caco2 cell assay: First, we performed a pharmacokinetic study of the behavior of the molecule in mice.
# T2 sequence (P01106 16-454): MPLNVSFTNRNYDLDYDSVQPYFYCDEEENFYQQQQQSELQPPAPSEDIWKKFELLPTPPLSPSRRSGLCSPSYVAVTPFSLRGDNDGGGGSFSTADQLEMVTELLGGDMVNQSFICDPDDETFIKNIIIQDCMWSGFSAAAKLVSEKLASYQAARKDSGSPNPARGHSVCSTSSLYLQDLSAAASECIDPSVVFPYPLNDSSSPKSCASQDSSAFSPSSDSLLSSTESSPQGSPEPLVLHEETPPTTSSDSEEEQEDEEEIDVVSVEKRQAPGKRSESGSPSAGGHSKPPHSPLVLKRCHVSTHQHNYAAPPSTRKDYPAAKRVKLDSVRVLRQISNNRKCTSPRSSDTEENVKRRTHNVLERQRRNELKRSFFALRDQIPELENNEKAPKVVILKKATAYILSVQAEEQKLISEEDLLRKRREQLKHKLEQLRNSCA
# T1 sequence (P03069 253-274 limits assumed): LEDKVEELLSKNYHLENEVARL
structure (smiles),measurement,setting,value
"CCN(CC)CC[n+]1ccc2c(C)c3[nH]c4ccccc4c3c(C)c2c1 [MYCMI-7, 2-(5,11-Dimethyl-6H-25-pyrido[4,3-b]carbazol-2-yl)-N,N-diethylethanamine bromide]",effect on homodimerization of GCN4 (GCN4:GCN4 GLuc),[1],did not have any significant effect
same,inhibition of MYC:MAX interaction (isPLA),[2],strongly inhibited
same,time after which reduction of MYC association with ODC1 promoter starts,[3],2 h
same,time from which MYC association with ODC1 promoter reaches a minimal level,[3],4 h
same,association of MYC with the ODC1 gene promoter (ChIP),[3]; breast cancer cells,reduced
same,GI50,[4],~2 µM
same,"4-OHT-induced expression of CR2, RGS16, CAMKV and nucleolin",[5],significantly reduced
same,efflux,Caco2 cell assay,strong efflux
same,survival,[6]; [10],significantly increased survival
same,tumor growth,[6]; [10],slowed down considerably
same,H&E staining of tumor areas,"[6]; mouse, in vivo",extensive necrosis/apoptosis
same,MYC expression in tumors (IHC),"[6]; mouse, in vivo",reduced expression of MYC
same,TUNEL staining,"[6]; mouse, in vivo",increased TUNEL staining
same,caspase 3 expression in tumors (IHC),"[6]; mouse, in vivo",increased caspase 3 expression
same,"proliferation and microvascular density (Ki67, CD31)","[6]; mouse, in vivo",reduced proliferation and microvascular density
same,GI50,[7],submicromolar range
same,concentration above which viability of HO15.19 cells started to go down (off target effects),[8],higher than 10 μM
same,proliferation/viability of MYC null cells,"[8]; concentrations of 10 μM, WST-1",unaffected
same,effect in MYCN-amplified versus non-amplified neuroblastoma cells,[9],significantly stronger
same,tumor growth and viability in all neuroblastoma cell lines,[9],reduced tumor growth and viability
